Measurements taken from patent US10829520B2, “Beta-hairpin peptidomimetics” (POLYPHOR AG, priority 2015, dated 2020).
Where a SMILES comes first, the peptide text is derived from it. Bridges are numbered along the chain shown (N, C = ends). Roman numbers before positions name the chains, in order. [ ]: non-standard residue; d: D form. Tle = CC(C)(C)[C@H](N)C(=O)O; dDab = NCC[C@@H](N)C(=O)O; Nle = CCCC[C@H](N)C(=O)O; Orn = NCCC[C@H](N)C(=O)O; Dab = NCC[C@H](N)C(=O)O; dAze = O=C(O)[C@H]1CCN1; Dap = NC[C@H](N)C(=O)O

Legend:
Format in all cases: cell-based
[1] = tested on: human red blood cells (hRBC); assay: Hemolysis of human red blood cells; conditions: red cells of human, 1 h
Description: (§1) Lyophilized peptides were weighed on a Microbalance (Mettler MT5) and dissolved in sterile water to a final concentration of 1 mg/mL. Stock solutions were kept at +4° C., light protected.
The peptides were tested for their hemolytic activity against human red blood cells (hRBC). Fresh hRBC were washed three times with phosphate buffered saline (PBS) and centrifuged for 10 min at 2000×g. Compounds (100 μg/mL) were incubated with 20% hRBC (v/v) for 1 h at 37° C. and shaking at 300 rpm. The final erythrocyte concentration was approximately 0.9×10^9 cells/mL. A value of 0% and 100% cell lyses, respectively, was determined by incubation of hRBC in the presence of PBS containing 0.001% acetic acid and 2.5% Triton X-100 in H2O, respectively. The samples were centrifuged, the supernatants were 8-fold diluted in PBS buffer and the optical densities (OD) were measured at 540 nm. The 100% lyses value (OD540H2O) gave an OD540 of approximately 0.5-1.0.
Percent hemolysis was calculated as follows: (OD540peptide/OD540H2O)×100%.

[2] = tested on: Klebsiella pneumoniae SSI #3010; conditions: SSI #3010
Description: as §1
(§2) The in vitro antimicrobial activities of the peptides were determined in 96-well plates (Greiner, polystyrene) by the standard CLSI broth microdilution method (Clinical and Laboratory Standards Institute 2014. Performance standards for antimicrobial susceptibility testing, 24th informational supplement. Approved standard CLSI M100-S24; Clinical and Laboratory Standards Institute, Wayne, Pa.). Inocula of the microorganisms were diluted into Mueller-Hinton II (MH-cation adjusted) broth and compared with a 0.5 McFarland standard to give appr. 10^6 colony forming units (CFU)/mL. Aliquots (90 μL) of inoculate were added to 10 μL of MH-II broth+P-80 (Polysorbate 80, 0.002% final concentration, v/v) containing the peptide in serial two-fold dilutions. The following microorganisms were used to determine antibiotic activity of the peptides: Escherichia coli ATCC 25922, Klebsiella pneumoniae SSI #3010^a), Acinetobacter baumannii DSM 30008, Pseudomonas aeruginosa ATCC 27853 and the clinical isolates Escherichia coli 926415^b), Klebsiella pneumoniae 968733^b) and Acinetobacter baumannii 872842^b). Antimicrobial activities of the peptides were expressed as the minimal inhibitory concentration (MIC) in μg/mL at which no visible growth was observed after 18-20 hours of incubation at 35° C. ^a) Obtained from Statens Serum Institut (SSI), Copenhagen, Denmark^b) Obtained from International Health Management Associates, Inc. (IHMA Europe Sàrl), Epalinges, Switzerland

[3] = tested on: Escherichia coli ATCC 25922; conditions: ATCC 25922
Description: as §1, §2

[4] = tested on: Acinetobacter baumannii DSM 30008; conditions: DSM 30008
Description: as §1, §2

[5] = tested on: Pseudomonas aeruginosa ATCC 27853; conditions: ATCC 27853
Description: as §1, §2

Structure (SMILES)	Hemolysis at 100 μg/mL [1]; 100	Klebsiella pneumoniae SSI #3010 MIC [2]	Escherichia coli ATCC 25922 MIC [3]	Acinetobacter baumannii DSM 30008 MIC [4]	Pseudomonas aeruginosa ATCC 27853 MIC [5]	Hemolysis at 100 μg/mL ([1]; 100 μg/mL)
CCCC[C@@H]1NC(=O)[C@@H]2CCCN2C(=O)[C@H]2CCCN2C(=O)[C@H](CO)NC(=O)[C@H](C)NC(=O)[C@H](C(C)(C)C)NC(=O)[C@H](CCN)NC(=O)[C@H](Cc2c[nH]c3ccccc23)NC(=O)[C@H](CCN)NC(=O)[C@@H](CCN)NC(=O)[C@H](CC(=O)N[C@H]2CCNC(=O)[C@H]([C@@H](C)O)NC(=O)[C@H](CCN)NC(=O)[C@H](CCN)NC(=O)[C@H](CC(C)C)NC(=O)[C@@H](Cc3ccccc3)NC(=O)[C@H](CCN)NC2=O)NC(=O)[C@H](CCN)NC(=O)[C@H](Cc2ccc(O)cc2)NC(=O)[C@H](CO)NC1=O [Ex. 64] (I: cyclo([Nle]SY[Dab]D[dDab][Dab]W[Dab][Tle]AS[dP]P) / II: [Dab][Dab][dF]L[Dab][Dab]T; amide I:5-II:N; lactam II:1-II:C)	<1%	2 µg/mL	2 µg/mL	1 µg/mL	4 µg/mL	–
CCCC[C@@H]1NC(=O)[C@@H]2CCCN2C(=O)[C@H]2CCCN2C(=O)[C@H](CO)NC(=O)[C@H](C)NC(=O)[C@H](C(C)C)NC(=O)[C@@H](NC(=O)[C@H](Cc2c[nH]c3ccccc23)NC(C)=O)CSSC[C@@H](C(=O)N[C@@H](CCCN)C(=O)N[C@@H](CCN)C(=O)N[C@H]2CCNC(=O)[C@H]([C@@H](C)O)NC(=O)[C@H](CCN)NC(=O)[C@H](CCN)NC(=O)[C@H](CC(C)C)NC(=O)[C@@H](Cc3ccccc3)NC(=O)[C@H](CCN)NC2=O)NC(=O)[C@H](Cc2ccc(O)cc2)NC(=O)[C@H](CO)NC1=O [Ex. 55] (Ac-WCVAS[dP]P[Nle]SYC[Orn][Dab][Dab][Dab][dF]L[Dab][Dab]T; disulfide 2-11; lactam 14-C)	–	1 µg/mL	0.5 µg/mL	1 µg/mL	2 µg/mL	1%
CC(C)C[C@@H]1NC(=O)[C@H](CCCNC(=N)N)NC(=O)[C@@H](CCN)NC(=O)[C@H](C(C)C)NC(=O)[C@@H](NC(=O)[C@H](Cc2ccc(O)cc2)NC(=O)[C@H](CCN)NC(=O)[C@@H](N)Cc2c[nH]c3ccccc23)CSSC[C@@H](C(=O)N[C@@H](Cc2ccc(O)cc2)C(=O)N[C@@H](CCN)C(=O)NCC(=O)N[C@@H](CCN)C(=O)N[C@H](C(=O)N[C@@H](CCN)C(=O)N[C@H]2CCNC(=O)[C@H]([C@@H](C)O)NC(=O)[C@H](CCN)NC(=O)[C@H](CCN)NC(=O)[C@H](CC(C)C)NC(=O)[C@@H](CC(C)C)NC(=O)[C@H](CCN)NC2=O)[C@@H](C)O)NC1=O [Ex. 166] (H-W[Dab]YCV[dDab]RLCY[Dab]G[Dab]T[Dab][Dab][Dab][dL]L[Dab][Dab]T; disulfide 4-9; lactam 16-C)	–	2 µg/mL	2 µg/mL	2 µg/mL	2 µg/mL	3%
CCCC[C@@H]1NC(=O)[C@@H]2CCCN2C(=O)[C@H]2CCCN2C(=O)[C@H](CO)NC(=O)[C@H](C)NC(=O)[C@H](C(C)(C)C)NC(=O)[C@@H](NC(=O)[C@H](Cc2c[nH]c3ccccc23)NC(C)=O)CC(=O)NCC[C@@H](C(=O)N[C@@H](CCCN)C(=O)N[C@@H](CCN)C(=O)N[C@H]2CCNC(=O)[C@H]([C@@H](C)O)NC(=O)[C@H](CCN)NC(=O)[C@H](CCN)NC(=O)[C@H](CC(C)C)NC(=O)[C@@H](Cc3ccccc3)NC(=O)[C@H](CCN)NC2=O)NC(=O)[C@H](Cc2ccc(O)cc2)NC(=O)[C@H](CO)NC1=O [Ex. 56] (Ac-WD[Tle]AS[dP]P[Nle]SY[Dab][Orn][Dab][Dab][Dab][dF]L[Dab][Dab]T; lactam 2-11, 14-C)	<1%	4 µg/mL	0.5 µg/mL	2 µg/mL	4 µg/mL	–
CCCC[C@@H]1NC(=O)[C@@H]2CCCN2C(=O)[C@H]2CCCN2C(=O)[C@H](CO)NC(=O)[C@H](C)NC(=O)[C@H](C(C)(C)C)NC(=O)[C@@H](NC(=O)[C@H](Cc2c[nH]c3ccccc23)NC(C)=O)CSSC[C@@H](C(=O)N[C@@H](CNC(=O)[C@@H](N)CCC(=O)O)C(=O)N[C@H](C(=O)N[C@@H](CCN)C(=O)N[C@H]2CCNC(=O)[C@H]([C@@H](C)O)NC(=O)[C@H](CCN)NC(=O)[C@H](CCN)NC(=O)[C@H](CC(C)C)NC(=O)[C@@H](Cc3ccccc3)NC(=O)[C@H](CCN)NC2=O)[C@@H](C)O)NC(=O)[C@H](Cc2ccc(O)cc2)NC(=O)[C@H](CO)NC1=O [Ex. 24] (Ac-WC[Tle]AS[dP]P[Nle]SYC[Dap](Glu)T[Dab][Dab][Dab][dF]L[Dab][Dab]T; disulfide 2-11; lactam 15-C)	–	4 µg/mL	2 µg/mL	2 µg/mL	4 µg/mL	1%
CC(C)C[C@@H]1NC(=O)[C@@H](CC(C)C)NC(=O)[C@H](CCN)NC(=O)[C@@H](NC(=O)[C@H](CCN)NC(=O)[C@@H](NC(=O)[C@H](CCN)NC(=O)CC[C@@H]2NC(=O)[C@H](CCN)NC(=O)[C@H](Cc3ccc(O)cc3)NC(=O)[C@H]([C@@H](C)O)NC(=O)[C@H](C(C)C)NC(=O)[C@@H]3CCCN3C(=O)[C@H]3CCN3C(=O)[C@H](CO)NC(=O)[C@H](C)NC(=O)[C@H](C(C)(C)C)NC(=O)[C@H](CCN)NC(=O)[C@H](Cc3c[nH]c4ccccc34)NC(=O)[C@H](CCN)NC(=O)[C@@H](CCN)NC2=O)[C@@H](C)O)CCNC(=O)[C@H]([C@@H](C)O)NC(=O)[C@H](CCN)NC(=O)[C@H](CCN)NC1=O [Ex. 101] (I: cyclo(AS[dAze]PVTY[Dab]E[dDab][Dab]W[Dab][Tle]) / II: [Dab]T[Dab][Dab][Dab][dL]L[Dab][Dab]T; amide I:9-II:N; lactam II:4-II:C)	4%	1 µg/mL	1 µg/mL	2 µg/mL	0.25 µg/mL	–
CC(C)C[C@@H]1NC(=O)[C@H](CCN)NC(=O)[C@@H](CCN)NC(=O)[C@H](CO)NC(=O)[C@@H](NC(=O)[C@@H](NC(=O)[C@H](CCN)NC(=O)[C@@H](N)Cc2c[nH]c3ccccc23)C(C)C)CSSC[C@@H](C(=O)N[C@@H](Cc2ccc(O)cc2)C(=O)N[C@@H](CCN)C(=O)NCC(=O)N[C@@H](CCN)C(=O)N[C@H](C(=O)N[C@@H](CCN)C(=O)N[C@H]2CCNC(=O)[C@H]([C@@H](C)O)NC(=O)[C@H](CCN)NC(=O)[C@H](CCN)NC(=O)[C@H](CC(C)C)NC(=O)[C@@H](CC(C)C)NC(=O)[C@H](CCN)NC2=O)[C@@H](C)O)NC1=O [Ex. 163] (H-W[Dab]VCS[dDab][Dab]LCY[Dab]G[Dab]T[Dab][Dab][Dab][dL]L[Dab][Dab]T; disulfide 4-9; lactam 16-C)	–	2 µg/mL	2 µg/mL	1 µg/mL	2 µg/mL	<1%
